# Assay results as given in patent US20050221328A1, “Inhibitors of inflammatory gene activity and cholesterol biosynthesis” (Wyeth, priority 2002, published 2005).
# Tests used:
# [1] = test system: human ICAM-1 promoter; assay: ICAM-1 promoter luciferase reporter in HepG2 cells transfected with human FXR and RXRα; type: cell-based; settings: HepG2 transfections, GW 4064 1 uM, 24 or 48 hr; required proximal NF-κB response element
# Excerpt: Referring to FIG. 26, HepG2 cells were transfected with the human FXR and RXRα expression plasmid and luciferase reporter plasmids containing the proximal promoter region of the human SHP (−360 to +40) or sequential deletions of the human ICAM-1 promoter (−1108 or −810 to +18). […] Data represent the mean+S.D. of three independent transfections.
# [2] = test system: HepG2 cells; assay: Gene expression in HepG2 cells treated 24 hr with CDCA or GW 4064; type: cell-based, human
# Description: HepG2 cells were maintained in growth media at 37° C. in a 5% CO2 incubator. The cells were seeded in deficient growth media (phenol red free DMEM (Gibco BRL) supplemented with heat-inactivated 10% FBS, 1% Glutamax, 1% MEM non-essential amino acids, 100 U/ml penicillin and 100 μg/ml streptomycin) at 4-5×10^5 cells per well in a 6 well dish (Falcon). The cells were then placed into serum deficient media for 24 hr before addition of the compounds for an additional 24 hrs. The cells were then harvested for RNA analysis.
# To further investigate the possibility that bile acid signaling through FXR can promote inflammatory gene expression, experiments were conducted in the hepatocyte cell line, HepG2. […] HepG2 cells express a number of inflammatory genes including ICAM-1 and M-CSF constitutively (Stonans et al '99 Cytokine 11:151). […] As positive controls, the induction of SHP mRNA and the repression of cyp7a were confirmed.
# Referring to FIG. 24a-b, HepG2 cells were treated for 24 hr with increasing concentrations of chenodeoxycholic acid (CDCA). […] Data are reported as mean±SEM for each group. C57BL/6 mice. […] Data are reported as mean±SEM for each group.
# [3] = test system: ICAM-1; assay: Hepatic mRNA levels after single oral dose of GW 4064 in C57BL/6 mice; type: in vivo, mouse; settings: single oral dose 50 mg/kg, hepatic mRNA (FIG. 25)
# [4] = test system: mouse liver; settings: GeneChip, 1 h after 20 ug/kg IL-1β ip, pretreated 5 days with vehicle or 100 ug/kg/day EE sc, vehicle+PBS=1.0;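 note: ovariectomized C57BL/6 mice, liver polyA RNA profiled, values are fold expression relative to vehicle plus PBS, averaged over two independent experiments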
# Description: Experiments were conducted to evaluate IL-1β regulation of gene expression in the mouse liver. Ovariectomized C57BL/6 mice were pretreated by subcutaneous administration of either corn oil/ethanol vehicle or 100 ug/kg/day ethynylestradiol (EE) for 5 days. On the fifth day, the mice received an intraperitoneal injection of either PBS or 20 ug/kg IL-1β in PBS. One hour later the livers were removed and polyA RNA was prepared. Global gene expression was determined by analysis using murine 11K GeneChips from Affymetrix. For each gene, the level of expression in animals receiving vehicle pretreatment plus PBS was defined as 1.0, with the expression levels in the mice receiving vehicle pretreatment±IL-1β or EE pretreatment±IL-1β defined relative to this. The results shown are the mean from two independent experiments.
# The fold regulation of each gene is plotted for animals receiving vehicle pretreatment x-axis) vs. animals receiving pretreatment with EE (y-axis). Genes with IL-1β induction unaffected by EE pretreatment would lie along the dotted diagonal.
# [5] = test system: SHP; assay: IL-1β inhibition of SHP expression in HepG2 cells (realtime PCR); type: cell-based, human; settings: 100 U/ml IL-1β, 3 and 6 hours, p<0.05 vs time 0
# Description: Referring to FIG. 2, IL-1β inhibition of SHP expression in HepG2 cells was examined as follows. IL-1β is typically not associated with repression of gene expression. To verify a direct IL-1β mediated repression of SHP expression, HepG2 cells were treated with 100 U/ml IL-1β. Total RNA prepared at various times afterward was analyzed for SHP expression by using realtime PCR. […] This was not due to a general decrease in cell viability as SHP mRNA levels returned to baseline levels by 9 hours following IL-1β treatment.
# [6] = test system: Fnk, JAB, LIX, bcl-3 and SHP; assay: Liver expression of Fnk, JAB, LIX, bcl-3 and SHP by realtime PCR after estrogen receptor ligand pretreatment and IL-1β; settings: mouse liver, realtime PCR
# Summary of the method: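 Mice got vehicle or EE at 100 ug/kg/day before IL-1β; in C57BL/6 wild-type, ERαKO and 129 ERβKO mice, EE at 10 ug/kg/day for 5 days preceded 1 hour IL-1β. Liver RNA from each animal was quantified by realtime PCR (mean +/−SEM), with vehicle+PBS set to 1.0.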
# [7] = HepG2, 24 hr, CDCA 1-100 uM or GW 4064 1-1000 nM
compound,measurement,setting,value
CC(C)c1onc(-c2c(Cl)cccc2Cl)c1COc1ccc(/C=C/c2cccc(C(=O)O)c2)c(Cl)c1 [GW 4064],ICAM-1 promoter activity,[1],stimulated
same,EC50 observed for ICAM-induction vs cited FXR EC50,[2]; HepG2,comparable
same,ICAM-1 expression,[2]; [7],induced in a dose dependent manner
same,M-CSF expression,[2]; [7],induced in a dose dependent manner
same,SHP mRNA,"[2]; HepG2, 24 hr, positive control",induction
same,cyp7a expression,"[2]; HepG2, 24 hr, positive control",repression
same,ICAM-1 expression in vivo,[3],induces
"IL-1: cytokine IL-1β, injected intraperitoneally in PBS or added to HepG2 cells",IL-1 Induction A20 (Tnfaip3),[4],14.0 fold
same,"IL-1 Induction B94, TNF-α induced protein 2 (Tnfaip2)",[4],17.1 fold
same,IL-1 Induction C/EBPδ (Cebpd),[4],7.0 fold
same,IL-1 Induction CD14 (Cd14),[4],3.5 fold
same,IL-1 Induction CD83 (Cd83),[4],6.2 fold
same,IL-1 Induction E-selectin (Sele),[4],7.2 fold
same,IL-1 Induction Ets transcription factor ELF3 (Elf3),[4],22.5 fold
same,IL-1 Induction G0/G1 switch gene 2 (G0s2),[4],0.11 fold
same,IL-1 Induction GTP binding protein IRG-47 (lfi47),[4],5.4 fold
same,IL-1 Induction Gadd45 (Gadd45a),[4],10.9 fold
same,IL-1 Induction Glvr-1 (Slc20a1),[4],3.9 fold
same,IL-1 Induction H-2Ld (H-2L),[4],8.2 fold
same,IL-1 Induction ICAM-1 (lcam1),[4],40.9 fold
same,IL-1 Induction IL-1m (Il1m),[4],23.6 fold
same,IL-1 Induction IL-15 receptor (Il15ra),[4],9.2 fold
same,IL-1 Induction IxBa (Nfkbia),[4],8.7 fold
same,"IL-1 Induction JAB, suppressor of cytokine signaling 1 (Cish1)",[4],7.3 fold
same,IL-1 Induction JE/MCP-1 (Scya2),[4],82.3 fold
same,IL-1 Induction LIX (Scyb5),[4],5.2 fold
same,IL-1 Induction LPS inducible C—C chemokine receptor related (AF030185),[4],6.3 fold
same,IL-1 Induction M-CSF (Csf1),[4],32.8 fold
same,IL-1 Induction MARCKS-like macrophage protein (Mlp),[4],4.8 fold
same,IL-1 Induction MIG (Scyb9),[4],15.0 fold
same,IL-1 Induction MIP2 (Scyb2),[4],60.1 fold
same,IL-1 Induction MIP-1 gamma (Scya9),[4],2.9 fold
same,IL-1 Induction MyD118 (GADD45b),[4],24.3 fold
same,IL-1 Induction NF-E2 related factor 2 (NRF2) (Nfe212),[4],5.2 fold
same,IL-1 Induction NF-kappa-B p105 (Nfkb1),[4],13.8 fold
same,IL-1 Induction NFkB p100 (Nfkb2),[4],4.0 fold
same,IL-1 Induction PAI-1 (Serpine1),[4],37.6 fold
same,IL-1 Induction PDGF-induced KC (Gro1),[4],7.3 fold
same,IL-1 Induction PIM-1 protein kinase (Pim1),[4],2.4 fold
same,IL-1 Induction SHP (NrGb2),[4],0.23 fold
same,IL-1 Induction T-cell death associated gene (Tdag),[4],2.5 fold
same,IL-1 Induction T-cell specific GTPase (Tgtp),[4],4.4 fold
same,IL-1 Induction TGFB inducible early growth response (Tieg),[4],0.31 fold
same,IL-1 Induction Ubiquitin-conjugating E2 enzyme variant 2 (Ube2v2),[4],5.0 fold
same,IL-1 Induction VCAM-1 (Vcam1),[4],5.2 fold
same,"IL-1 Induction adrenergic receptor, beta 2 (Adrb2)",[4],2.9 fold
same,IL-1 Induction adrenomedullin (Adm),[4],11.3 fold
same,IL-1 Induction apoptosis inhibitor 1 (Birc2),[4],12.2 fold
same,IL-1 Induction apoptosis inhibitor 2 (Birc3),[4],9.6 fold
same,IL-1 Induction bcl-3 (Bcl3),[4],11.6 fold
same,IL-1 Induction c-JUN (Jun),[4],4.8 fold
same,IL-1 Induction calcium binding protein A6 (S100a6),[4],2.4 fold
same,IL-1 Induction calgranulin A (S100A8),[4],10.4 fold
same,IL-1 Induction calgranulin B (S100a9),[4],12.5 fold
same,IL-1 Induction cytokine-inducible kinase Fnk (Cnk),[4],2.9 fold
same,IL-1 Induction gly96 (ler3),[4],42.1 fold
same,IL-1 Induction growth factor receptor bound protein 7 (Grb7),[4],0.27 fold
same,IL-1 Induction guanylate nucleotide binding protein 2 (Gbp2),[4],6.5 fold
same,IL-1 Induction helix-loop-helix factor HES-1 (Hes1),[4],0.09 fold
same,IL-1 Induction heme oxygenase 1 (Hmox1),[4],5.5 fold
same,IL-1 Induction hsp68 (Hsp70-3),[4],6.3 fold
same,IL-1 Induction inducible 6-phosphofructo-2-kinase (AA163244),[4],4.0 fold
same,IL-1 Induction inhibitor of DNA binding 3 (idb3),[4],6.0 fold
same,IL-1 Induction insulin-like growth factor binding protein 1 (lgfbp1),[4],4.0 fold
same,IL-1 Induction intercrine (Scya7),[4],12.4 fold
same,IL-1 Induction interferon regulatory factor 1 (Irf1),[4],10.5 fold
same,IL-1 Induction junB (Junb),[4],2.9 fold
same,IL-1 Induction lipocalin 2 (Lcn2),[4],5.5 fold
same,IL-1 Induction lkB-beta (Nfkbib),[4],4.0 fold
same,IL-1 Induction m-myc (Myc),[4],3.0 fold
same,IL-1 Induction macrophage interferon inducible protein 10 (Scyb10),[4],50.1 fold
same,IL-1 Induction metalloproteinase-disintegrin (Adamts1),[4],2.7 fold
same,IL-1 Induction molecule possessing ankyrin-repeats induced by LPS (aa614971),[4],22.7 fold
same,IL-1 Induction myocyte-enriched calcineurin interactin protein (Dscrl),[4],11.1 fold
same,IL-1 Induction noctumin (Ccr4),[4],7.7 fold
same,IL-1 Induction p65 NF-kappa B (Rela),[4],2.5 fold
same,IL-1 Induction phospholipid scramblase 1 (Plscr1),[4],4.4 fold
same,IL-1 Induction protein tyrosine phosphatase 4a1 (Ptp4a1),[4],2.0 fold
same,IL-1 Induction regulator for ribosome resistance homolog (Rrr),[4],2.8 fold
same,IL-1 Induction relB (Relb),[4],7.0 fold
same,IL-1 Induction rhoB (Arhb),[4],30.0 fold
same,IL-1 Induction serum amyloid A 3 (Saa3),[4],37.4 fold
same,IL-1 Induction serum amyloid A 4 (Saa4),[4],2.5 fold
same,IL-1 Induction suppressor of cytokine signaling 2 (Cish2),[4],2.7 fold
same,IL-1 Induction suppressor of cytokine signaling 3 (Cish3),[4],13.5 fold
same,IL-1 Induction transglutaminase (Tgm2),[4],2.2 fold
same,SHP expression,[5],significantly reduced
same,IL-1 repression of SHP expression,[6]; vehicle treated or 100 ug/kg/day EE treated animals,86%
same,IL-1 induction of bcl-3,"[6]; vehicle treated or 100 ug/kg/day EE treated mice, IL-1 vs PBS",6.2 fold
